Data from patent US9062078B2, “Substituted 7-azabicyles and their use as orexin receptor modulators” (priority 2013, dated 2015).
Where two headings read alike, the source gives them in different places.

Tests used:
rat orexin 1 receptor = rat orexin 1 receptor (Rattus norvegicus, UniProt P56718); assay: Rat orexin 1 receptor radioligand binding (competitive, [3H]-SB674042, HEK293 cell preparations)
human orexin 2 receptor = human orexin 2 receptor (Homo sapiens (Human), UniProt O43614); assay: Human orexin 2 receptor radioligand binding (competitive, [3H]-EMPA, HEK293 cell preparations)
human orexin 2 receptor, sequence (O43614 whole entry): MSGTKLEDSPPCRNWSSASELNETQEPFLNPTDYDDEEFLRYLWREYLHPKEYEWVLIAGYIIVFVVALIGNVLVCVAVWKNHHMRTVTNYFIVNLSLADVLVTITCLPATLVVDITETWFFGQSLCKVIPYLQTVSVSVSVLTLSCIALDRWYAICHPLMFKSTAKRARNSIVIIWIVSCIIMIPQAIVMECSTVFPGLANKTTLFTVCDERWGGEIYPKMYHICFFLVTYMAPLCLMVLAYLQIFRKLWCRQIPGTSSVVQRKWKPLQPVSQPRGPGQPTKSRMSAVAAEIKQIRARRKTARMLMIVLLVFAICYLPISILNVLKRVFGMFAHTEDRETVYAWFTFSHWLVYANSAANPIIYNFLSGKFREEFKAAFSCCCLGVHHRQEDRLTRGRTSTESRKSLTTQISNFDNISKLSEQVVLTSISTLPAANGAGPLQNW

[1] = rat orexin 1 receptor, [3H]-SB674042 competition binding, read-out: rOX1 Ki (nm)
[2] = human orexin 2 receptor, [3H]-EMPA competition binding, read-out: hOX2 Ki (nm)

| SMILES | Ki (rat orexin 1 receptor; rOX1 Ki (nm)) | Ki (human orexin 2 receptor; hOX2 Ki (nm)) | Ki (rat orexin 1 receptor; [1]) | Ki (human orexin 2 receptor; [2]) |
| --- | --- | --- | --- | --- |
| Cc1ccc(-n2cccn2)c(C(=O)N2C3CCC2C(COc2ncc(F)cn2)C3)n1 (racemic) [Example 104, (±)-(2-(((5-fluoropyrimidin-2-yl)oxy)methyl)-7-azabicyclo[2.2.1]heptan-7-yl)(6-methyl-3-(1H-pyrazol-1-yl)pyridin-2-yl)methanone] | 1100 nM | 4600 nM | – | – |
| COc1cccc(OC)c1C(=O)N1C2CCC1C(COc1ccc(F)cn1)C2 (racemic) [Example 106, (±)-(2,6-dimethoxyphenyl)(2-(((5-fluoropyridin-2-yl)oxy)methyl)-7-azabicyclo[2.2.1]heptan-7-yl)methanone] | – | – | 300 nM | 154 nM |
| O=C(c1ncc(Cl)cc1-n1nccn1)N1C2CCC1C(COc1ccc(F)cn1)C2 (racemic) [Example 112, (±)-(5-chloro-3-(2H-1,2,3-triazol-2-yl)pyridin-2-yl)(2-(((5-fluoropyridin-2-yl)oxy)methyl)-7-azabicyclo[2.2.1]heptan-7-yl)methanone] | – | – | 480 nM | 1000 nM |
| COc1cnc(C(=O)N2C3CCC2C(COc2ccc(F)cn2)C3)c(-n2nccn2)c1 (racemic) [Example 113, (±)-(2-(((5-fluoropyridin-2-yl)oxy)methyl)-7-azabicyclo[2.2.1]heptan-7-yl)(5-methoxy-3-(2H-1,2,3-triazol-2-yl)pyridin-2-yl)methanone] | – | – | 3400 nM | 4800 nM |
| CCOc1ccc(C)nc1C(=O)N1C2CCC1C(COc1ccc(F)cn1)C2 (racemic) [Example 118, (±)-(3-ethoxy-6-methylpyridin-2-yl)(2-(((5-fluoropyridin-2-yl)oxy)methyl)-7-azabicyclo[2.2.1]heptan-7-yl)methanone] | – | – | 440 nM | 2200 nM |
| COc1ccc(C(=O)N2C3CCC2C(COc2ccc(F)cn2)C3)c(-n2nccn2)c1 (racemic) [Example 119, (±)-(2-(((5-fluoropyridin-2-yl)oxy)methyl)-7-azabicyclo[2.2.1]heptan-7-yl)(4-methoxy-2-(2H-1,2,3-triazol-2-yl)phenyl)methanone] | – | – | 500 nM | 1300 nM |
| Cc1cccc(-c2ncccn2)c1C(=O)N1C2CCC1C(COc1ccc(F)cn1)C2 (racemic) [Example 123, (±)-(2-(((5-fluoropyridin-2-yl)oxy)methyl)-7-azabicyclo[2.2.1]heptan-7-yl)(2-methyl-6-(pyrimidin-2-yl)phenyl)methanone] | 400 nM | – | – | 286 nM |
| CCOc1nccc(C)c1C(=O)N1C2CCC1C(COc1ccccn1)C2 (racemic) [Example 155, (±)-(2-ethoxy-4-methylpyridin-3-yl)(2-((pyridin-2-yloxy)methyl)-7-azabicyclo[2.2.1]heptan-7-yl)methanone] | 1570 nM | – | – | 3600 nM |
| Cc1nc2sccn2c1C(=O)N1C2CCC1C(COc1ccccn1)C2 (racemic) [Example 156, (±)-(6-methylimidazo[2,1-b]thiazol-5-yl)(2-((pyridin-2-yloxy)methyl)-7-azabicyclo[2.2.1]heptan-7-yl)methanone] | – | – | > 10000 nM | > 10000 nM |
| CCOc1nc(C)ccc1C(=O)N1C2CCC1C(COc1ccccn1)C2 (racemic) [Example 158, (±)-(2-ethoxy-6-methylpyridin-3-yl)(2-((pyridin-2-yloxy)methyl)-7-azabicyclo[2.2.1]heptan-7-yl)methanone] | – | – | 2930 nM | 1780 nM |
| O=C(c1c(O)ccc2cccnc12)N1C2CCC1C(COc1ccccn1)C2 (racemic) [Example 159, (±)-(7-hydroxyquinolin-8-yl)(2-((pyridin-2-yloxy)methyl)-7-azabicyclo[2.2.1]heptan-7-yl)methanone] | – | – | 262 nM | 786 nM |
| CCOc1ncc(-c2ccccc2)cc1C(=O)N1C2CCC1C(COc1ccccn1)C2 (racemic) [Example 160, (±)-(2-ethoxy-5-phenylpyridin-3-yl)(2-((pyridin-2-yloxy)methyl)-7-azabicyclo[2.2.1]heptan-7-yl)methanone] | – | – | 8700 nM | > 10000 nM |
| CCOc1nccc(Br)c1C(=O)N1C2CCC1C(COc1ccccn1)C2 (racemic) [Example 161, (±)-(4-bromo-2-ethoxypyridin-3-yl)(2-((pyridin-2-yloxy)methyl)-7-azabicyclo[2.2.1]heptan-7-yl)methanone] | – | 1450 nM | 478 nM | – |
| CCOc1ccnc(Cl)c1C(=O)N1C2CCC1C(COc1ccccn1)C2 (racemic) [Example 162, (±)-(2-chloro-4-ethoxypyridin-3-yl)(2-((pyridin-2-yloxy)methyl)-7-azabicyclo[2.2.1]heptan-7-yl)methanone] | – | – | 8500 nM | > 10000 nM |
| O=C(c1cc(F)ccc1-n1nccn1)N1C2CCC1C(CNc1cnc3ccccc3n1)C2 (racemic) [Example 174, (±)-(5-fluoro-2-(2H-1,2,3-triazol-2-yl)phenyl)(2-((quinoxalin-2-ylamino)methyl)-7-azabicyclo[2.2.1]heptan-7-yl)methanone] | – | – | 373 nM | 1000 nM |
| Cc1ccc(-c2ncccn2)c(C(=O)N2C3CCC2C(COc2ncc(F)cn2)C3)n1 (racemic) [Example 175, (±)-(2-(((5-fluoropyrimidin-2-yl)oxy)methyl)-7-azabicyclo[2.2.1]heptan-7-yl)(6-methyl-3-(pyrimidin-2-yl)pyridin-2-yl)methanone] | 2500 nM | – | – | 4000 nM |
| Cc1coc(-c2ccc(C)nc2C(=O)N2C3CCC2C(COc2ccc(F)cn2)C3)n1 (racemic) [Example 177, (±)-(2-(((5-fluoropyridin-2-yl)oxy)methyl)-7-azabicyclo[2.2.1]heptan-7-yl)(6-methyl-3-(4-methyloxazol-2-yl)pyridin-2-yl)methanone] | – | – | 535 nM | 4000 nM |
| Cc1cnc(C(=O)N2C3CCC2C(Nc2cnc(C(F)(F)F)cn2)C3)c(-n2ccnn2)c1 (racemic) [Example 185, (±)-(5-methyl-3-(1H-1,2,3-triazol-1-yl)pyridin-2-yl)(2-(5-(trifluoromethyl)pyrazin-2-yl)amino)-7-azabicyclo[2.2.1]heptan-7-yl)methanone] | – | – | 1500 nM | 2700 nM |
| Cc1cnc(C(=O)N2C3CCC2C(Nc2ccc(C(F)(F)F)cn2)C3)c(-n2nccn2)c1 (racemic) [Example 188, (±)-(5-methyl-3-(2H-1,2,3-triazol-2-yl)pyridin-2-yl)(2-(5-(trifluoromethyl)pyridin-2-yl)amino)-7-azabicyclo[2.2.1]heptan-7-yl)methanone] | 295 nM | – | – | 1500 nM |
| Cc1ccc(C(=O)N2C3CCC2C(Nc2ccc(C(F)(F)F)cn2)C3)c(-n2nccn2)n1 (racemic) [Example 189, (±)-(6-methyl-2-(2H-1,2,3-triazol-2-yl)pyridin-3-yl)(2-(5-(trifluoromethyl)pyridin-2-yl)amino)-7-azabicyclo[2.2.1]heptan-7-yl)methanone] | – | 1500 nM | 766 nM | – |
| Cc1ccc(C(=O)N2C3CCC2C(Nc2ccc(C(F)(F)F)cn2)C3)c(-n2ccnn2)n1 (racemic) [Example 190, (±)-(6-methyl-2-(1H-1,2,3-triazol-1-yl)pyridin-3-yl)(2-(5-(trifluoromethyl)pyridin-2-yl)amino)-7-azabicyclo[2.2.1]heptan-7-yl)methanone] | 589 nM | – | – | 1200 nM |
| COc1ccc(C(=O)N2C3CCC2C(Nc2ccc(C(F)(F)F)cn2)C3)c(-n2nccn2)c1 (racemic) [Example 191, (±)-(4-methoxy-2-(2H-1,2,3-triazol-2-yl)phenyl)(2-(5-(trifluoromethyl)pyridin-2-yl)amino)-7-azabicyclo[2.2.1]heptan-7-yl)methanone] | 257 nM | – | – | 8800 nM |
| COc1c(F)cccc1C(=O)N1C2CCC1C(Nc1ccc(C(F)(F)F)cn1)C2 (racemic) [Example 193, (±)-((3-fluoro-2-methoxyphenyl)(2-(5-(trifluoromethyl)pyridin-2-yl)amino)-7-azabicyclo[2.2.1]heptan-7-yl)methanone] | – | – | 2900 nM | > 10000 nM |
| CCOc1ccc(C)nc1C(=O)N1C2CCC1C(Nc1ccc(C(F)(F)F)cn1)C2 (racemic) [Example 194, (±)-(3-ethoxy-6-methylpyridin-2-yl)(2-(5-(trifluoromethyl)pyridin-2-yl)amino)-7-azabicyclo[2.2.1]heptan-7-yl)methanone] | 450 nM | – | – | 800 nM |
| Cc1cc(C)nc(NC2CC3CCC2N3C(=O)c2nc(C)ccc2-c2ncccn2)n1 (racemic) [Example 200, (±)-(2-(((4,6-dimethylpyrimidin-2-yl)amino)-7-azabicyclo[2.2.1]heptan-7-yl)(6-methyl-3-(pyrimidin-2-yl)pyridin-2-yl)methanone] | – | – | 1100 nM | 552 nM |
| Cc1cc(C)nc(NC2CC3CCC2N3C(=O)c2nc(C)ccc2-n2nccn2)n1 (racemic) [Example 201, (±)-(2-((4,6-dimethylpyrimidin-2-yl)amino)-7-azabicyclo[2.2.1]heptan-7-yl)(6-methyl-3-(2H-1,2,3-triazol-2-yl)pyridin-2-yl)methanone] | – | – | 3700 nM | 1100 nM |
| Cc1cc(C)nc(NC2CC3CCC2N3C(=O)c2ccccc2-n2nccn2)n1 (racemic) [Example 202, (±)-(2-(2H-1,2,3-triazol-2-yl)phenyl)(2-(((4,6-dimethylpyrimidin-2-yl)amino)-7-azabicyclo[2.2.1]heptan-7-yl)methanone] | – | 444 nM | 760 nM | – |
| CCOc1ccc(C)nc1C(=O)N1C2CCC1C(Nc1nc(C)cc(C)n1)C2 (racemic) [Example 203, (±)-(2-((4,6-dimethylpyrimidin-2-yl)amino)-7-azabicyclo[2.2.1]heptan-7-yl)(3-ethoxy-6-methylpyridin-2-yl)methanone] | – | – | > 10000 nM | 490 nM |
| O=C(c1ccccc1-n1nccn1)N1C2CCC1C(Nc1cccc(C(F)(F)F)n1)C2 (racemic) [Example 209, (±)-(2-(2H-1,2,3-triazol-2-yl)phenyl)(2-(6-(trifluoromethyl)pyridin-2-yl)amino)-7-azabicyclo[2.2.1]heptan-7-yl)methanone] | – | – | 1100 nM | 736 nM |
